How the values were obtained:
[1] = system: G-quadruplex of oligonucleotide GGGTTAGGGTTAGGGTTAGGG (3.5 repeats of the human telomereic motif); assay: G-quadruplex stabilizing activity, fluorescence Tm (FAM+DABCYL oligonucleotide); format: binding
How it was run: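 FAM/DABCYL-labelled telomeric oligonucleotide (0.2 μM strand) in 10 mM sodium cacodylate pH 7.6 with 0.1 M LiCl (or NaCl) was annealed, then incubated ≥1 h at 20 °C with compound at 1 μM final. Samples were heated 20→80 °C, with excitation at 470 nm and emission at 515/588 nm. Tm is the 515 nm emission midpoint.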

[2] = system: human telomerease (HL60 cell extract); assay: Antitelomerease activity: extension of oligonucleotide TS followed by PCR amplification, with HL60 extract; format: biochemical; conditions: read-out: TRAP IC50
How it was run: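 HL60 CHAPS-lysate extract extends TS primer (15 min, 30 °C) with compound at 10, 1, 0.1 and 0.01 µM, followed by 30-cycle PCR with TS and CXext. Products resolved on 12% acrylamide and quantified; % inhibition versus enzyme control and blank, IC50 read from semilog plot.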

Structure (SMILES) | G4 delta Tm [1] [°C] | IC50 [2] [µM]
CC1=NCCN1c1nc(Nc2ccc3nc(C)cc(N(C)C)c3c2)nc(Nc2ccc3nc(C)cc(N(C)C)c3c2)n1 [Example 148] | 12 | 1.5
Cc1cc(N(C)C)c2cc(Nc3nc(Nc4ccc5nc(C)cc(N(C)C)c5c4)nc(N4CCC[C@H]4CN4CCCC4)n3)ccc2n1 [Example 149, 2,4-bis(4-dimethylamino-2-methylquinolin-6-yl)amino-6-[2(S)-(pyrrolidin-1-yl)methylpyrrolidin-1-yl]-[1,3,5]triazine] | 12.5 | 2.5
CC(=O)NCCNc1nc(Nc2ccc3nc(C)cc(N(C)C)c3c2)nc(Nc2ccc3nc(C)cc(N(C)C)c3c2)n1 [Example 150] | 6.5 | 2.5
